Measurements from US20240294509A1, “PYRIDAZINONE COMPOUND AS PARP7 INHIBITOR” (Euregen Biopharma Co., Ltd., priority 2021, published 2024).

Columns and labels:
[1] = Pharmacokinetic properties in SD rats after single intravenous injection and oral administration; format: in vivo; conditions: SD male rats; for F: oral bioavailability; for AUC(0-inf) / Cmax / clearance / half-life: rat, plasma
Text: 1. Test purpose: to determine the pharmacokinetic characteristics of some of the example compound of the present invention in SD rats after single intravenous injection(IV) and oral administration(PO) by LC-MS/MS method.
2. Test material: the test drug is self-made from the example compounds of the present invention; Positive control compound RBN2397 purchased from Shanghai BioChemPartner Biotechnology Co., Ltd. SD male rats were obtained from the Laboratory Animal Management Department of Shanghai Family Planning Research Institute. Animal production license number (SCXK (Shanghai) 2018-0006).
Preparation of 0.5% methyl cellulose: 5 g of methyl cellulose were weighed and dissolved in 1000 mL of purified water.
Preparation of oral formulation: A required amount of test compound was weighed and dissolved in 0.5% methyl cellulose solution to obtain a suspension or solution of 0.5 mg/mL or 1.0 mg/mL.
Preparation of intravenous injection formulation: A required amount of test compound was weighed, and dissolved in 0.5 mL of dimethyl sulfoxide to prepare a solution of 4 mg/mL. 0.25 mL of the above solution was added into 0.5 mL of polyethylene glycol 15 hydroxystearate (solutol) and 4.25 mL of physiological saline to obtain a solution of 0.2 mg/mL.
Administration: SD male rats were orally administered (PO) after fasting overnight, and fed 4 hours after administration.
Sample Collection: blood was collected through jugular vein or other suitable vein, and 0.2 mL of blood was collected at each time point. Samples were placed into tubes containing ethylenediamine tetraacetic acid dipotassium salt and kept on ice before centrifugation. Within 1 hour after blood collection, the blood samples were centrifuged at 2-8° C. and 6800 g for 6 minutes and stored at −80° C. The time point for blood collection was 0.083, 0.25, 0.5, 1, 2, 4, 8 and 24 hours after intravenous administration, and 0.25, 0.5, 1, 2, 4, 6, 8 and 24 hours after oral administration.
The intravenous dosage was 1 mg/kg, and the pharmacokinetic parameters for oral administration were standardized to a 1 mg/kg dose.

NCI-H1373 cells = experiment: Inhibitory effect on the proliferation of NCI-H1373 cells (CellTiter-Glo); format: cell-based; conditions: Homo sapiens, 144 h, 6 days treatment
Text: 1. Experimental Principle: NCI-H1373 cells are a type of lung adenocarcinoma cells that overexpress PARP7.
2. Experimental Materials: NCI-H1373 cells were obtained from Nanjing Cobioer Biosciences Co., Ltd. CellTiter-Glo® (cell viability chemiluminescent assay reagent) was purchased from Promega (Catalog No. G7571). RPMI-1640 medium was obtained from ATCC (Catalog No. 30-2001). RPMI-1640 medium, penicillin/streptomycin antibiotics were purchased from WISENT. Fetal bovine serum was obtained from Biosera. The Nivo multimode reader was procured from PerkinElmer.
3. Experimental Method: NCI-H1373 cells were seeded in a white 96-well plate with 80 μL of cell suspension per well, containing 3000 NCI-H1373 cells. The cell plate was incubated overnight in a carbon dioxide (CO2) incubator.
The test compounds were serially diluted 5-fold to the 9th concentration, ranging from 2 mmol/L to 5.12 nmol/L, for a duplicate assay. 78 μL of culture medium was added to the intermediate plate, and then, according to the corresponding positions, 2 μL of each gradient-diluted compound was transferred to the intermediate plate. After thorough mixing, 20 μL of the compound solution was transferred to the cell plate. The compound concentration range in the cell plate ranged from 10 μmol/L to 0.0256 nmol/L. The cell plate was incubated in a CO2 incubator for 6 days.
Another cell plate was prepared, and the signal values were read on the day of dosing to obtain the maximum value referred to as Max in the following equation for data analysis. 25 μL of cell viability chemiluminescent assay reagent was added to each well of this cell plate, and it was incubated at room temperature for 10 minutes to stabilize the luminescent signal. Readings were taken using a multimode reader.
After 6 days of treatment, 25 μL of cell viability chemiluminescent assay reagent was added to each well of the cell plate, and it was incubated at room temperature for 10 minutes to stabilize the luminescent signal. Readings were taken using a multimode reader.
The IC50 value was determined by four-parameter curve fitting (obtained by using the “log(inhibitor) vs. response—Variable slope” model in GraphPad Prism).

[2] = Metabolic stability in rat liver microsomes; format: in vitro ADME; conditions: pH 7.4, 1.00 μM compound, 0.5 mg/mL protein, read-out: intrinsic clearance, Clint
Protocol: (§1) 1. Experiment purpose: This study aims to determine the metabolic stability of selected compounds from the embodiments of the invention in liver microsomes of humans, dogs, monkeys, rats, and mice using the LC-MS/MS method.
(§2) Test compounds: The test drug is self-made from the example compounds of the present invention; Positive control compound RBN2397 purchased from Shanghai BioChemPartner Biotechnology Co., Ltd.
(§3) Liver microsomes obtained from Xenotech.
(§4) The incubation was carried out at 37° C. in a CO2 incubator. The reactions were terminated by adding 150 μL of cold acetonitrile at different time points (0, 5, 15, 30, and 45 minutes). The 96-well plate was shaken at 600 rpm for 10 minutes, followed by centrifugation at 6000 rpm for 15 minutes. The supernatant (80 μL) was mixed with 140 μL of pure water, and the remaining amount of the compound was determined using LC-MS/MS. The intrinsic clearance (Clint) was calculated using the formula Clint=k/liver microsomes protein concentration, where “k” is the linear regression slope of log compound remaining percentage against incubation time.

[3] = Metabolic stability in dog liver microsomes; format: in vitro ADME; conditions: pH 7.4, 1.00 μM compound, 0.5 mg/mL protein, read-out: intrinsic clearance, Clint
Protocol: as §1, §2, §3, §4

[4] = Metabolic stability in human liver microsomes; format: in vitro ADME; conditions: pH 7.4, 1.00 μM compound, 0.5 mg/mL protein, read-out: intrinsic clearance, Clint
Protocol: as §1, §2, §3, §4

PARP1 = PARP1 (Homo sapiens (Human), UniProt P09874)
Chain of PARP1 (P09874 whole entry): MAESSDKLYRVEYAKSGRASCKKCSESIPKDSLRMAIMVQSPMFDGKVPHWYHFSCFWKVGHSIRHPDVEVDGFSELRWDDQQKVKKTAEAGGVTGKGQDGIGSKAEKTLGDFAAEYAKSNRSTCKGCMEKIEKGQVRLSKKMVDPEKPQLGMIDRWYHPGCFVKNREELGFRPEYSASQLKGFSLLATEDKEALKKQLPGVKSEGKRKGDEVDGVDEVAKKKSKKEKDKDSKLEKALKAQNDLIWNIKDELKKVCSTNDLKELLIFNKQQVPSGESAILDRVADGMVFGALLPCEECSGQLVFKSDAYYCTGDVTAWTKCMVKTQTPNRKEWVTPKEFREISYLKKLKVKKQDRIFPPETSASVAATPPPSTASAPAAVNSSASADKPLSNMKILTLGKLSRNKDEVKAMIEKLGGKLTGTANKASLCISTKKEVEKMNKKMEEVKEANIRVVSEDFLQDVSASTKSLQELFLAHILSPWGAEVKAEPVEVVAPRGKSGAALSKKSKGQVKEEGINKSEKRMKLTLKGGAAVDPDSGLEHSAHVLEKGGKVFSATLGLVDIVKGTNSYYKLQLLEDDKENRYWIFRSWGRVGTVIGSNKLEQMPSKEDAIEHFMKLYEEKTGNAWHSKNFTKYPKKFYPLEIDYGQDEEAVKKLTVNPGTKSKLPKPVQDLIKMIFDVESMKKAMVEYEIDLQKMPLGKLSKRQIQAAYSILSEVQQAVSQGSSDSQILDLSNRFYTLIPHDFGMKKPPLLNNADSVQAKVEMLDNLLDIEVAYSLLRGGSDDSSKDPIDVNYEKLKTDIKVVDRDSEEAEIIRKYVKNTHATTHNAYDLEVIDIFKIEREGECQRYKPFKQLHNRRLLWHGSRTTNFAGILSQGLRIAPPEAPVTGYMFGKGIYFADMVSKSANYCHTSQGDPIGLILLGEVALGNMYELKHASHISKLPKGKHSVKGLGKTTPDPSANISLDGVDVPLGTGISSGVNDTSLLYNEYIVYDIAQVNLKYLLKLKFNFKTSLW
Protocol: (§5) Experimental Principle: The inhibitory effect of the test substance on the enzymatic activity of PARP1/7 is assessed by using an Enzyme-Linked Immunosorbent Assay (ELISA).
(§6) (1) Pre-coating: Add 100 μL of a PBS buffer (10 mM NaH2PO4, 10 mM Na2HPO4, 150 mM NaCl, pH 7.4) containing 20 g/mL of histone to each well of a 96-well plate, and incubate at 4° C. overnight.
(§7) (3) Add 5 μL of the test substance or solvent to each well.
(§8) (4) Add 20 μL of(PARP1 or PARP7 (50 ng/well), and incubate at 30° C. for 1 hour.
(§9) (5) Add 50 μL of streptavidin-HRP to the reaction mixture, and incubate at 30° C. for 30 minutes.
(§10) (6) Finally, add 100 μL of a citrate buffer containing H2O2 and luminol (0.1 M, pH 5.4), and measure the luminescent signal using a microplate reader (Molecular Devices SpectraMax M5).
(§11) (7) Calculate the inhibition rate of PARP1 or PARP7 enzyme activity as [(control group−treatment group)/control group]×10000. Fit the dose-response data with standard dilutions using Prism GraphPad software and calculate the concentration required to achieve 5000 inhibition of PARP1 or PARP7 enzyme activity (IC50).

PARP7 = PARP7 (Homo sapiens (Human), UniProt Q7Z3E1)
Chain of PARP7 (Q7Z3E1 whole entry): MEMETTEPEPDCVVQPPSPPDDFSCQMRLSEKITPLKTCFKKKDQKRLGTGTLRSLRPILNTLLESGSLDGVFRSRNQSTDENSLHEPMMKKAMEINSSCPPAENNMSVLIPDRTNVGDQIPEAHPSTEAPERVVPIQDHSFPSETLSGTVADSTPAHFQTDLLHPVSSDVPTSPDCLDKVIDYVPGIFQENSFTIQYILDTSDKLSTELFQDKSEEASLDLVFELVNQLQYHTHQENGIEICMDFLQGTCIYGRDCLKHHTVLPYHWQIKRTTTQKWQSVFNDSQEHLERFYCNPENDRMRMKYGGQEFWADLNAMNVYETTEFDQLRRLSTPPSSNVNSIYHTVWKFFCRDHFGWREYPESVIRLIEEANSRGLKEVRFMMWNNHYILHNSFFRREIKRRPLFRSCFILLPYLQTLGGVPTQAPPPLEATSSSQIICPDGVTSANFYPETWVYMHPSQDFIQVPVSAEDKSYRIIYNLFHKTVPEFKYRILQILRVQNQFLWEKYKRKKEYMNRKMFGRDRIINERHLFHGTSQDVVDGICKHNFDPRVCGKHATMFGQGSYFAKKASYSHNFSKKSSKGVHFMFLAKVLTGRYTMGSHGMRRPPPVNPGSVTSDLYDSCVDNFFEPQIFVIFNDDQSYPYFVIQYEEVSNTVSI
Protocol: as §5, §6, §7, §8, §9, §10, §11

[5] = Oral gavage, standardized to a 1 mg/kg dose

Row | F ([1]; Oral gavage) [%] | AUC(0-inf) ([1]; Intravenous injection, 1 mg/kg) [ng·h/mL] | Cmax ([1]; Intravenous injection, 1 mg/kg) [ng/mL] | clearance ([1]; Intravenous injection, 1 mg/kg) [mL/min/kg] | half-life ([1]; Intravenous injection, 1 mg/kg) [min] | AUC(0-inf) [1, 5] [ng·h/mL] | Cmax [1, 5] [ng/mL] | Compound | IC50 (PARP1) [nM] | IC50 (PARP7) [nM] | also measured
1 | 21.97 | 360 | 720 | 46.9 | 34.8 | 89.2 | 53.5 | O=C(COC[C@@H]1CCCN1c1cc(C(F)(F)F)c(=O)[nH]n1)N1CCN(c2ncc(C(F)(F)F)cn2)CC1 [Compound 1] | – | – | IC50 (NCI-H1373 cells): 38 nM
2 | 18.1 | 1380 | 1950 | 12.2 | 85.8 | 248 | 30.4 | O=C(CC[C@@H]1CCCN1c1cc(C(F)(F)F)c(=O)[nH]n1)N1CCN(c2ncc(C(F)(F)F)cn2)CC1 [Compound 6] | – | – | CLint scaled at 1 μM [2]: 137 mL/min/kg; IC50 (NCI-H1373 cells): 10 nM; CLint scaled at 1 μM [3]: 31.6 mL/min/kg; CLint scaled at 1 μM [4]: 64.6 mL/min/kg
3 | – | – | – | – | – | – | – | O=C(CC[C@H]1CCCN1c1cc(C(F)(F)F)c(=O)[nH]n1)N1CCN(c2ncc(C(F)(F)F)cn2)CC1 [Compound 18] | 2.5 | 2.2 | –
4 | 14.34 | 397 | 477 | 42.2 | 40.8 | 60.7 | 15.1 | O=C(CC[C@@H]1C[C@H](Oc2ccccc2)CN1c1cc(C(F)(F)F)c(=O)[nH]n1)N1CCN(c2ncc(C(F)(F)F)cn2)CC1 [Compound 19] | – | – | –
5 | 15.53 | 523 | 734 | 32 | 49.2 | 94.4 | 15 | O=C(CC[C@@H]1C[C@@H](F)CN1c1cc(C(F)(F)F)c(=O)[nH]n1)N1CCN(c2ncc(C(F)(F)F)cn2)CC1 [Compound 20] | – | – | CLint scaled at 1 μM [2]: 74.4 mL/min/kg; IC50 (NCI-H1373 cells): 12.4 nM; CLint scaled at 1 μM [3]: 28.7 mL/min/kg; CLint scaled at 1 μM [4]: 46.6 mL/min/kg
6 | – | – | – | – | – | – | – | O=C(CC[C@@H]1CCCCN1c1cc(C(F)(F)F)c(=O)[nH]n1)N1CCN(c2ncc(C(F)(F)F)cn2)CC1 [Compound 22] | 31.6 | 4.6 | –
7 | – | – | – | – | – | – | – | O=C(CC[C@@H]1CC(F)(F)CN1c1cc(C(F)(F)F)c(=O)[nH]n1)N1CCN(c2ncc(C(F)(F)F)cn2)CC1 [Compound 23] | 9.7 | 3.2 | –
8 | – | – | – | – | – | – | – | O=C(CC[C@@H]1C[C@@H]2CCC[C@@H]2N1c1cc(C(F)(F)F)c(=O)[nH]n1)N1CCN(c2ncc(C(F)(F)F)cn2)CC1 [Compound 24] | 4.1 | 2.1 | –
9 | – | – | – | – | – | – | – | C[C@@H]1C[C@@H](CCC(=O)N2CCN(c3ncc(C(F)(F)F)cn3)CC2)N(c2cc(C(F)(F)F)c(=O)[nH]n2)C1 [Compound 29] | 18.3 | 25.6 | –
10 | – | – | – | – | – | – | – | C[C@H]1CC(CCC(=O)N2CCN(c3ncc(C(F)(F)F)cn3)CC2)N(c2cc(C(F)(F)F)c(=O)[nH]n2)C1 (stereo partly shown) [Compound 30] | 7.6 | 5.1 | –
11 | – | – | – | – | – | – | – | O=C(CC[C@@H]1C[C@@H](O)CN1c1cc(C(F)(F)F)c(=O)[nH]n1)N1CCN(c2ncc(C(F)(F)F)cn2)CC1 [Compound 31] | 25.9 | 4.4 | –
12 | – | – | – | – | – | – | – | CO[C@H]1C[C@@H](CCC(=O)N2CCN(c3ncc(C(F)(F)F)cn3)CC2)N(c2cc(C(F)(F)F)c(=O)[nH]n2)C1 [Compound 34] | 13.6 | 3.3 | –
13 | – | – | – | – | – | – | – | O=C(CC[C@@H]1C[C@H](N2CCOCC2)CN1c1cc(C(F)(F)F)c(=O)[nH]n1)N1CCN(c2ncc(C(F)(F)F)cn2)CC1 [Compound 35] | 47 | 4.3 | –
